Patent US11919965B2, “Methods of treating multiple myeloma with bispecific anti-BCMA x anti-CD3 antibodies” (Regeneron Pharmaceuticals, Inc., priority 2019, dated 2024)
Read-outs that look alike come from different tables or passages of the source.

Assays:
[1] = system: primary human CD138+ plasma cells; experiment: Autologous T cell-mediated killing of plasma cells and T cell activation (% CD25 upregulation); format: cell-based; settings: for EC50: read-out: T Cell Activation (% CD25 Upregulation) CD8+ T cells EC50
Description: (§1) The specific killing of enriched CD138^+ human or cynomolgus monkey plasma cells by unstimulated autologous T cells was assessed by flow cytometry. Human or cynomolgus bone marrow aspirates and blood were provided within 24 hours of harvest. CD138^+ plasma cells were enriched from bone marrow by positive selection using the EasySep Human CD138^+ Positive Selection kit according to the manufacturer's instructions. PBMC from whole blood were isolated by density separation. PBMC were labeled with 1 μM of VYBRANT™ CFDA-SE fluorescent tracking dye. […] At the end of the culture, surviving CD138^+ plasma cells were analyzed by flow cytometry, utilizing fixable LIVE/DEAD dye and plasma cell specific cell surface markers. Percent viability was normalized to control condition (plasma cells in the presence of PBMC only). T cell activation was assessed by flow cytometry. Activation is reported as the percentage of CD2^+/CD4^+ or CD2^+/CD8^+/CD16^− T cells expressing CD25. Percent T cell activation was normalized to control condition (plasma cells in the presence of PBMC only).

[2] = system: primary cynomolgus monkey CD138+ plasma cells; experiment: as above; format: cell-based
Description: as §1

[3] = system: BCMA+ MOLP-8-luciferase tumors; experiment: Xenogenic tumor model, i.v. MOLP-8-luciferase in PBMC-engrafted NSG mice, bioluminescence (Example 14); format: in vivo, mouse; settings: 4 mg/kg
Description: To determine the in vivo efficacy of anti-BCMA×anti-CD3 bispecific antibodies (Abs), a xenogenic tumor study was performed. On day −11, immunodeficient NOD.Cg-Prkdc^scidII2rg^tm1Wjl/SzJ (NSG) mice were intraperitoneally injected with 4×10^6 human peripheral blood mononuclear cells (PBMC) from a normal, healthy donor. On day 0, the mice were intravenously administered 2×10^6 BCMA^+ MOLP-8 human multiple myeloma tumor cells that were engineered to also express firefly luciferase (MOLP-8-luciferase cells). […] The mice were administered these Abs twice more on days 3 and 7, for a total of three doses. Tumor growth was assessed over 48 days by measuring tumor bioluminescence (BLI) in anesthetized animals. As a positive control, a group of mice (n=5) was given only MOLP-8-luciferase cells, but not PBMC or antibody.
Implantation and measurement of xenogenic tumors: On day −11, immunodeficient NOD.Cg-Prkdc^scidII2rg^tm1Wjl/SzJ (NSG) mice were intraperitoneally injected with 5×10^6 human PBMC from a normal, healthy donor. On day 0, the mice were intravenously administered 2×10^6 BCMA^+ MOLP-8-luciferase cells. […] The mice were administered these Abs twice more on days 3 and 7, for a total of three doses. Tumor growth was assessed over 48 days by measuring tumor BLI in anesthetized animals. As a positive control, a group of mice (n=5) was given only MOLP-8-luciferase cells, but not PBMC or antibody.
Measurement of xenogenic tumor growth: BLI imaging was used to measure tumor burden. Mice were injected IP with 150 mg/kg of the luciferase substrate D-luciferin suspended in PBS. Five minutes after this injection, BLI imaging of the mice was performed under isoflurane anesthesia using the Xenogen IVIS system. Image acquisition was carried out with the field of view at D, subject height of 1.5 cm, and medium binning level with automatic exposure time determined by the Living Image Software. BLI signals were extracted using Living Image software: regions of interest were drawn around each tumor mass and photon intensities were recorded as p/s/cm2/sr.

[4] = system: Jurkat/NFATLuc.3C7 reporter cells with NCI-H929 cells (BCMA positive); experiment: Jurkat/NFATLuc reporter bioassay (T-cell activation); format: cell-based, human
Description: (§2) Activity of the anti-BCMA×anti-CD3 bispecific antibodies were assessed in a Jurkat/NFATLuc reporter bioassay utilizing several cell lines with varying levels of BCMA surface expression. The Jurkat cells were engineered to express an NFAT-luciferase reporter (Jurkat/NFATLuc.3C7), and 50,000 Jurkat reporter cells were combined with 50,000 BCMA positive (Daudi, MM1-S, NCI-H929, OPM-2, RPMI-8226, MOLP-8, or Raji) or BCMA negative (HEK293) cells in Thermo Nunclon delta 96 well white microwell plates (Thermo Scientific, Cat #136102) in 50 ul of assay media (RPMI media with 10% FBS and 1% P/S/G). Three-fold serial dilutions of the BCMA×CD3 bispecific antibodies (mAb25441D or mAb25442D), or a bivalent anti-BCMA antibody (mAb21581) were immediately added in 50 uL of assay buffer. The plates were gently agitated and incubated in a 37° C., 5% CO2 incubator for 4-6 hours. NFAT-Luciferase activity was determined using Promega One-Glo (Cat #E6130) and a Perkin Elmer Envision plate reader. RLU were plotted in GraphPad Prism using a four-parameter logistic equation over a 12-point response curve to calculate EC50 values. The no antibody treatment condition for each dose-response curve is also included in the analysis as a continuation of the three-fold serial dilution and is represented as the lowest dose. The signal to noise (S:N) is determined by taking the ratio of the highest RLU on the curve to the lowest.

[5] = system: Jurkat/NFATLuc.3C7 reporter cells with OPM-2 cells (BCMA positive); experiment: as above; format: cell-based, human
Description: as §2

[6] = system: Jurkat/NFATLuc.3C7 reporter cells with MOLP-8 cells (BCMA positive); experiment: as above; format: cell-based, human
Description: as §2

[7] = system: Jurkat/NFATLuc.3C7 reporter cells with Daudi cells (BCMA positive); experiment: as above; format: cell-based, human
Description: as §2

## REGN5458: anti-BCMA×anti-CD3 bispecific antibody: mAb21581 BCMA heavy chain, mAb7221G CD3 heavy chain and common light chain; SEQ ID NOs 126, 127, 129
[1]; Human Donor 1 plasma cells, autologous primary human T cells
  EC50: 0.214 nM
[1]; Human Donor 2 plasma cells, autologous primary human T cells, maximum
  T Cell Activation (% CD25 Upregulation) CD8+ T cells % Activation: 36%
[1]; Human Donor 2 plasma cells, autologous primary human T cells
  EC50: 0.86 nM
[1]; donor 2
  maximum percent CD8+ T cell activation: 36%
[2]; Cynomolgus Monkey Donor 1 plasma cells, autologous T cells, maximum
  T Cell Activation (% CD25 Upregulation) CD8+ T cells % Activation: 12%
[2]; Cynomolgus Monkey Donor 1 plasma cells, autologous T cells, read-out: T Cell Activation (% CD25 Upregulation) CD8+ T cells EC50
  EC50: 22.4 nM
[2]; Cynomolgus Monkey Donor 2 plasma cells, autologous T cells, maximum
  T Cell Activation (% CD25 Upregulation) CD4+ T cells % Activation: 16%
[2]; Cynomolgus Monkey Donor 2 plasma cells, autologous T cells, read-out: T Cell Activation (% CD25 Upregulation) CD4+ T cells EC50
  EC50: ~18.1 nM
[2]; donor 1
  maximum percent T cell activation, CD8+ T cells: 12%
[2]; donor 1, read-out: EC50, CD4+ T cell activation
  EC50: 28.1 nM
[2]; donor 1, read-out: EC50, CD8+ T cell activation
  EC50: 22.4 nM
[2]; donor 2
  maximum percent T cell activation, CD4+ T cells: 16%
[2]; donor 2, read-out: EC50, CD4+ T cell activation
  EC50: 18.1 nM
[2]; donor 2, read-out: EC50, CD8+ T cell activation
  EC50: 76.7 nM
[3]
  Radiance [p/s/cm2^2/sr] 8 days post-implantation (mean ± SEM): 5.66E+05 ± 1.97E+04 p/s/cm2^2/sr
  Radiance [p/s/cm2^2/sr] 22 days post-implantation (mean ± SEM): 1.08E+06 ± 1.71E+05 p/s/cm2^2/sr
  Radiance [p/s/cm2^2/sr] 24 days post-implantation (mean ± SEM): 1.02E+06 ± 1.99E+05 p/s/cm2^2/sr
  Radiance [p/s/cm2^2/sr] 28 days post-implantation (mean ± SEM): 3.56E+06 ± 6.34E+05 p/s/cm2^2/sr
  Radiance [p/s/cm2^2/sr] 30 days post-implantation (mean ± SEM): 6.92E+06 ± 1.40E+06 p/s/cm2^2/sr
  Radiance [p/s/cm2^2/sr] 34 days post-implantation (mean ± SEM): 2.65E+07 ± 1.36E+07 p/s/cm2^2/sr
  Radiance [p/s/cm2^2/sr] 37 days post-implantation (mean ± SEM): 4.52E+07 ± 1.40E+07 p/s/cm2^2/sr
[3]; three doses
  tumor growth: delayed the growth
[4]
  S:N (highest RLU to lowest): 39
[5]
  S:N (highest RLU to lowest): 8

## REGN5459: anti-BCMA×anti-CD3 bispecific antibody: mAb21581 BCMA heavy chain, mAb7221G20 CD3 heavy chain and common light chain; SEQ ID NOs 126, 128, 129
[6]
  S:N (highest RLU to lowest): 31
[7]
  S:N (highest RLU to lowest): 25
